Measurements: the supplement of paper PMC11451515

Columns and labels:
Assay in all cases: AUC of viability dose-response curve (% viability x log10 dose units); higher = less sensitive
Details in all cases: 48 h
P12-Ichikawa = system: P12-Ichikawa
Procedure, shortened: (§1)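 Leukemia cells adapted to each medium were seeded at 500 or 1000 cells/well in 1536-well plates and dosed with library compounds in DMSO at 11 threefold doses from 47 μM to 0.79 nM for 48 h at 37°C. CellTiter-Glo One luminescence was normalised per plate to DMSO and cell-free wells, then fitted with a four-parameter log-logistic model over log10 doses. Area under the curve was taken from this fit by the trapezoidal rule, with curves above full viability scaled and curves failing quality control removed.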

NOMO1 = system: NOMO1
Procedure, shortened: as §1

SEM cells = system: SEM cells
Procedure, shortened: as §1

[1] = RPMI 5 mM glucose + 10% dialyzed FBS

| Compound | AUC of viability dose-response curve (P12-Ichikawa; HPLM + 10% dialyzed FBS) | AUC of viability dose-response curve (P12-Ichikawa; RPMI 5 mM glucose + 10% FBS) | AUC of viability dose-response curve (P12-Ichikawa; [1]) | AUC of viability dose-response curve (NOMO1; HPLM + 10% dialyzed FBS) | AUC of viability dose-response curve (NOMO1; RPMI 5 mM glucose + 10% FBS) | AUC of viability dose-response curve (NOMO1; [1]) | AUC of viability dose-response curve (SEM cells; HPLM + 10% dialyzed FBS) | AUC of viability dose-response curve (SEM cells; RPMI 5 mM glucose + 10% FBS) | AUC of viability dose-response curve (SEM cells; [1]) |
| --- | --- | --- | --- | --- | --- | --- | --- | --- | --- |
| CC(C)C[C@H](CN)CC(=O)O | 450 | 458 | 455 | 460 | 445 | 458 | 449 | 452 | 451 |
| C[C@@H]1CC[C@@]2(OC1)O[C@H]3C[C@H]4[C@@H]5C/C=C6/C[C@H](CC[C@]6(C)[C@H]5CC[C@]4(C)[C@H]3[C@@H]2C)O[C@@H]7O[C@H](CO)[C@@H](O[C@@H]8O[C@@H](C)[C@H](O)[C@@H](O)[C@H]8O)[C@H](O)[C@H]7O[C@@H]9O[C@@H](C)[C@H](O)[C@@H](O)[C@H]9O | 450 | 452 | 445 | 452 | 453 | 449 | 440 | 431 | 429 |
| CC1SC/2=C(C(O)=O)/C(=O)C3=CC(=C(C=C3N12)N4CCN(CC4)C\C5=C(C)\OC(=O)O5)F (stereo not given) | 437 | 449 | 449 | 413 | 456 | 443 | 472 | 442 | 449 |
| COc1cc2ncnc(-n3nc(-c4ccccn4)nc3N)c2cc1OC | 447 | 436 | 413 | 437 | 406 | 418 | 360 | 326 | 317 |
| CCCCN(CCCC)CCC(O)c1cc2c(Cl)cc(Cl)cc2c2cc(C(F)(F)F)ccc12 (stereo not given) | 466 | 459 | 452 | 453 | 459 | 471 | 442 | 408 | 415 |
| O=C1NC(=O)[C@@H](c2cn3c4c(cccc24)CCC3)[C@@H]1c1c[nH]c2ccccc12 | 358 | 344 | 380 | 367 | 363 | 379 | 345 | 317 | 348 |
| Cc1ccc(C(C)(O)c2nc3ccccc3s2)c(C)c1 (stereo not given) | 412 | 415 | 426 | 427 | 433 | 457 | 386 | 387 | 386 |
| Cc1c[nH]c(/C=C2\C(=O)Nc3ccccc32)c1CCC(=O)O | 436 | 413 | 390 | 399 | 440 | 428 |  |  |  |
| C[C@H]1CN(C[C@@H](C)O1)CC(=O)NC2=CC=C3SC4=C(CC3=C2)C=CC=C4\C5=C\C(=O)\C=C(/O5)N6CCOCC6 |  |  |  | 397 | 439 | 433 |  |  |  |
| NC(=O)c1ccc(-c2nc(-c3ccc4c(c3)OCCO4)c(-c3ccccn3)[nH]2)cc1 | 470 | 459 | 473 | 449 | 460 | 473 | 451 | 462 | 416 |
| O=C(NC1CCOCC1)c1ccc(-c2cc(-c3c[nH]nc3-c3ccccn3)ccn2)cc1 | 463 | 448 | 435 | 458 | 465 | 466 | 464 | 474 | 453 |
| CNC(=O)c1cccc(-c2ccc3c(N4CCOC[C@@H]4C)nc(N4CCOC[C@@H]4C)nc3n2)c1 | 370 | 316 | 322 | 343 | 376 | 323 | 305 | 333 | 305 |
| Clc1cccc(-c2nnnn2Cc2cccnc2)c1Cl | 397 | 385 | 382 | 362 | 365 | 357 | 359 | 348 | 375 |
| CC(C)(C)/[N+]([O-])=C/c1ccc([S+](=O)([O-])[O][Na])cc1[S+](=O)([O-])[O][Na] | 461 | 451 | 469 | 451 | 445 | 459 | 438 | 461 | 453 |
| Cc1cc2c(C(C)C)c(O)c(O)c(C=O)c2c(O)c1-c1c(C)cc2c(C(C)C)c(O)c(O)c(C=O)c2c1O | 453 | 451 | 452 | 445 | 449 | 452 | 459 | 447 | 444 |
| C[C@]\1(CCS\C(=N1)N)C2=CC(=C(F)C=C2F)C3=CN=CN=C3 | 411 | 420 | 435 | 378 | 359 | 383 | 441 | 390 | 429 |
| CN(C)Cc1ccc(-c2nc3cccc4c3n2CCNC4=O)cc1 | 461 | 463 | 466 | 464 | 458 | 452 | 455 | 459 | 462 |
| CO[C@H]1C[C@@H]2CC[C@@H](C)[C@@](O)(O2)C(=O)C(=O)N2CCCC[C@H]2C(=O)O[C@H]([C@H](C)C[C@@H]2CC[C@@H](OP(C)(C)=O)[C@H](OC)C2)CC(=O)[C@H](C)/C=C(\C)[C@@H](O)[C@@H](OC)C(=O)[C@H](C)C[C@H](C)/C=C/C=C/C=C/1C | 453 | 411 | 414 | 452 | 462 | 476 | 382 | 360 | 380 |
| N[C@@H](C(=O)N[C@H]1[C@H]2SC\C(=C(/N2C1=O)C(O)=O)Cl)C3=CC=CC=C3 | 462 | 457 | 466 | 462 | 430 | 441 | 436 | 465 | 468 |
| O=[N+]([O-])c1cn2c(n1)OC[C@@H](OCc1ccc(OC(F)(F)F)cc1)C2 | 450 | 453 | 458 | 454 | 459 | 470 | 444 | 466 | 455 |
| COc1ccc(CCN2CCN(CCCc3ccccc3)CC2)cc1OC | 466 | 472 | 473 | 459 | 444 | 439 | 461 | 465 | 457 |
